Test results from patent publication EP0454444A1, “Glutarimide derivatives and herbicides” (NISSAN CHEMICAL INDUSTRIES LTD., priority 1990, dated 1991).

Assays:
Assay in all cases: Herbicidal effect test by soil treatment
Format in all cases: in vivo
[1] = tested on: annual sedge (Cyperus microiria); conditions: three weeks after spraying
Source text: (§1) In a plastic box of 15 cm length, 22 cm width and 6 cm depth, there was placed a sterilized dilvial soil, and seeds of barnyardgrass (Echinochloa crusgalli), large crabgrass (Digitaria adscendens), annual sedge (Cyperus microiria), black nightshade (Solanum nigrum L.), hairly galinosoga (Galinsoga ciliat), rorippa ssp. (Rorippa atrovirens), rice (Oryza sativa), corn (Zea mays), wheat (Triticum aestivum), soybean (Glysine max) and cotton (Gossypium herbaceum) were sown mixedly. After covering soil to about 1 cm over the seeds, herbicides were sprayed evenly on the soil surface to predetermined proportions of the active ingredient In spraying, the wettable powder, emulsifiable concentrate, dry flowable or flowable in the above formulation examples were diluted with water and sprayed over the entire surface by means of a small sprayer. Three weeks after spraying, the herbicidal effect on crop plants including rice, corn, wheat, soybean, cotton and various kinds of weeds were examined according to the judgement criteria shown below. Judgement criteria
(§2) The above growth control rates are determined by measuring the top fresh weights of the treated plants and those of the non-treated plants, and culculated from the following formula: [formula]

[2] = tested on: barnyardgrass (Echinochloa crusgalli); conditions: application amount 6.3 g/a, three weeks after spraying
Source text: as §1, §2

[3] = tested on: black nightshade (Solanum nigrum L.); conditions: three weeks after spraying
Source text: as §1, §2

[4] = tested on: corn (Zea mays); conditions: crop plant, three weeks after spraying
Source text: as §1, §2

[5] = tested on: cotton (Gossypium herbaceum); conditions: crop plant, three weeks after spraying
Source text: as §1, §2

[6] = tested on: hairly galinosoga (Galinsoga ciliat); conditions: three weeks after spraying
Source text: as §1, §2

[7] = tested on: large crabgrass (Digitaria adscendens); conditions: three weeks after spraying
Source text: as §1, §2

[8] = tested on: rice (Oryza sativa); conditions: crop plant, three weeks after spraying
Source text: as §1, §2

[9] = tested on: rorippa ssp. (Rorippa atrovirens); conditions: three weeks after spraying
Source text: as §1, §2

[10] = tested on: soybean (Glysine max); conditions: crop plant, three weeks after spraying
Source text: as §1, §2

[11] = tested on: wheat (Triticum aestivum); conditions: crop plant, three weeks after spraying
Source text: as §1, §2

## CCOC(=O)c1cc(N2C(=O)CCC(C)C2=O)c(F)cc1Cl (stereo not shown) [1-12]
[1]; application amount 6.3 g/a
  herbicidal effect, K (Cyperus microiria): 5 (Growth control,rates of more than 90% (almost completely withered))
[2]
  herbicidal effect, N (Echinochloa crusgalli): 2 (Growth control rates of 20 to 40%)
[3]; application amount 6.3 g/a
  herbicidal effect, H (Solanum nigrum L.): 2 (Growth control rates of 20 to 40%)
[4]; application amount 6.3 g/a
  herbicidal effect, T (Zea mays): 0 (Growth control rates of less than 5% (substantially no effect))
[5]; application amount 6.3 g/a
  herbicidal effect, C (Gossypium herbaceum): 0 (Growth control rates of less than 5% (substantially no effect))
[6]; application amount 6.3 g/a
  herbicidal effect, D (Galinsoga ciliat): 4 (Growth control rates of 70 to 90%)
[7]; application amount 6.3 g/a
  herbicidal effect, M (Digitaria adscendens): 5 (Growth control,rates of more than 90% (almost completely withered))
[8]; application amount 6.3 g/a
  herbicidal effect, R (Oryza sativa): 2 (Growth control rates of 20 to 40%)
[9]; application amount 6.3 g/a
  herbicidal effect, I (Rorippa indica): 5 (Growth control,rates of more than 90% (almost completely withered))
[10]; application amount 6.3 g/a
  herbicidal effect, S (Glysine max): 0 (Growth control rates of less than 5% (substantially no effect))
[11]; application amount 6.3 g/a
  herbicidal effect, W (Triticum vulgare): 1 (Growth control rates of 5 to 20%)

## O=C1CC(C(F)(F)F)CC(=O)N1Cc1ccc(Cl)cc1 [1-31]
[1]; application amount 6.3 g/a
  herbicidal effect, K (Cyperus microiria): 5 (Growth control,rates of more than 90% (almost completely withered))
[2]
  herbicidal effect, N (Echinochloa crusgalli): 4 (Growth control rates of 70 to 90%)
[3]; application amount 6.3 g/a
  herbicidal effect, H (Solanum nigrum L.): 5 (Growth control,rates of more than 90% (almost completely withered))
[4]; application amount 6.3 g/a
  herbicidal effect, T (Zea mays): 0 (Growth control rates of less than 5% (substantially no effect))
[5]; application amount 6.3 g/a
  herbicidal effect, C (Gossypium herbaceum): 0 (Growth control rates of less than 5% (substantially no effect))
[6]; application amount 6.3 g/a
  herbicidal effect, D (Galinsoga ciliat): 5 (Growth control,rates of more than 90% (almost completely withered))
[7]; application amount 6.3 g/a
  herbicidal effect, M (Digitaria adscendens): 4 (Growth control rates of 70 to 90%)
[8]; application amount 6.3 g/a
  herbicidal effect, R (Oryza sativa): 0 (Growth control rates of less than 5% (substantially no effect))
[9]; application amount 6.3 g/a
  herbicidal effect, I (Rorippa indica): 5 (Growth control,rates of more than 90% (almost completely withered))
[10]; application amount 6.3 g/a
  herbicidal effect, S (Glysine max): 0 (Growth control rates of less than 5% (substantially no effect))
[11]; application amount 6.3 g/a
  herbicidal effect, W (Triticum vulgare): 0 (Growth control rates of less than 5% (substantially no effect))

## CCOC(=O)c1cc(N2C(=O)CC(c3ccccc3)CC2=O)c(F)cc1Cl [1-29]
[1]; application amount 1.6 g/a
  herbicidal effect, K (Cyperus microiria): 5 (Growth control,rates of more than 90% (almost completely withered))
[1]; application amount 3.2 g/a
  herbicidal effect, K (Cyperus microiria): 5 (Growth control,rates of more than 90% (almost completely withered))
[1]; application amount 6.3 g/a
  herbicidal effect, K (Cyperus microiria): 5 (Growth control,rates of more than 90% (almost completely withered))
[3]; application amount 1.6 g/a
  herbicidal effect, H (Solanum nigrum L.): 5 (Growth control,rates of more than 90% (almost completely withered))
[3]; application amount 3.2 g/a
  herbicidal effect, H (Solanum nigrum L.): 5 (Growth control,rates of more than 90% (almost completely withered))
[3]; application amount 6.3 g/a
  herbicidal effect, H (Solanum nigrum L.): 5 (Growth control,rates of more than 90% (almost completely withered))
[4]; application amount 1.6 g/a
  herbicidal effect, T (Zea mays): 0 (Growth control rates of less than 5% (substantially no effect))
[4]; application amount 3.2 g/a
  herbicidal effect, T (Zea mays): 0 (Growth control rates of less than 5% (substantially no effect))
[4]; application amount 6.3 g/a
  herbicidal effect, T (Zea mays): 0 (Growth control rates of less than 5% (substantially no effect))
[5]; application amount 1.6 g/a
  herbicidal effect, C (Gossypium herbaceum): 0 (Growth control rates of less than 5% (substantially no effect))
[5]; application amount 3.2 g/a
  herbicidal effect, C (Gossypium herbaceum): 0 (Growth control rates of less than 5% (substantially no effect))
[5]; application amount 6.3 g/a
  herbicidal effect, C (Gossypium herbaceum): 0 (Growth control rates of less than 5% (substantially no effect))
[6]; application amount 1.6 g/a
  herbicidal effect, D (Galinsoga ciliat): 5 (Growth control,rates of more than 90% (almost completely withered))
[6]; application amount 3.2 g/a
  herbicidal effect, D (Galinsoga ciliat): 5 (Growth control,rates of more than 90% (almost completely withered))
[6]; application amount 6.3 g/a
  herbicidal effect, D (Galinsoga ciliat): 5 (Growth control,rates of more than 90% (almost completely withered))
[8]; application amount 1.6 g/a
  herbicidal effect, R (Oryza sativa): 0 (Growth control rates of less than 5% (substantially no effect))
[8]; application amount 3.2 g/a
  herbicidal effect, R (Oryza sativa): 0 (Growth control rates of less than 5% (substantially no effect))
[8]; application amount 6.3 g/a
  herbicidal effect, R (Oryza sativa): 0 (Growth control rates of less than 5% (substantially no effect))
[9]; application amount 1.6 g/a
  herbicidal effect, I (Rorippa indica): 5 (Growth control,rates of more than 90% (almost completely withered))
[9]; application amount 3.2 g/a
  herbicidal effect, I (Rorippa indica): 5 (Growth control,rates of more than 90% (almost completely withered))
[9]; application amount 6.3 g/a
  herbicidal effect, I (Rorippa indica): 5 (Growth control,rates of more than 90% (almost completely withered))
[10]; application amount 1.6 g/a
  herbicidal effect, S (Glysine max): 0 (Growth control rates of less than 5% (substantially no effect))
[10]; application amount 3.2 g/a
  herbicidal effect, S (Glysine max): 0 (Growth control rates of less than 5% (substantially no effect))
[10]; application amount 6.3 g/a
  herbicidal effect, S (Glysine max): 0 (Growth control rates of less than 5% (substantially no effect))
[11]; application amount 1.6 g/a
  herbicidal effect, W (Triticum vulgare): 0 (Growth control rates of less than 5% (substantially no effect))
[11]; application amount 3.2 g/a
  herbicidal effect, W (Triticum vulgare): 0 (Growth control rates of less than 5% (substantially no effect))
[11]; application amount 6.3 g/a
  herbicidal effect, W (Triticum vulgare): 0 (Growth control rates of less than 5% (substantially no effect))

## C#CCN1C(=O)COc2ccc(N3C(=O)CC(C(F)(F)F)CC3=O)cc21 [1-24]
[1]; application amount 0.4 g/a
  herbicidal effect, K (Cyperus microiria): 5 (Growth control,rates of more than 90% (almost completely withered))
[1]; application amount 0.8 g/a
  herbicidal effect, K (Cyperus microiria): 5 (Growth control,rates of more than 90% (almost completely withered))
[1]; application amount 1.6 g/a
  herbicidal effect, K (Cyperus microiria): 5 (Growth control,rates of more than 90% (almost completely withered))
[3]; application amount 0.4 g/a
  herbicidal effect, H (Solanum nigrum L.): 5 (Growth control,rates of more than 90% (almost completely withered))
[3]; application amount 0.8 g/a
  herbicidal effect, H (Solanum nigrum L.): 5 (Growth control,rates of more than 90% (almost completely withered))
[3]; application amount 1.6 g/a
  herbicidal effect, H (Solanum nigrum L.): 5 (Growth control,rates of more than 90% (almost completely withered))
[4]; application amount 0.4 g/a
  herbicidal effect, T (Zea mays): 0 (Growth control rates of less than 5% (substantially no effect))
[4]; application amount 0.8 g/a
  herbicidal effect, T (Zea mays): 2 (Growth control rates of 20 to 40%)
[4]; application amount 1.6 g/a
  herbicidal effect, T (Zea mays): 4 (Growth control rates of 70 to 90%)
[5]; application amount 0.4 g/a
  herbicidal effect, C (Gossypium herbaceum): 0 (Growth control rates of less than 5% (substantially no effect))
[5]; application amount 0.8 g/a
  herbicidal effect, C (Gossypium herbaceum): 1 (Growth control rates of 5 to 20%)
[5]; application amount 1.6 g/a
  herbicidal effect, C (Gossypium herbaceum): 3 (Growth control rates of 40 to 70%)
[6]; application amount 0.4 g/a
  herbicidal effect, D (Galinsoga ciliat): 5 (Growth control,rates of more than 90% (almost completely withered))
[6]; application amount 0.8 g/a
  herbicidal effect, D (Galinsoga ciliat): 5 (Growth control,rates of more than 90% (almost completely withered))
[6]; application amount 1.6 g/a
  herbicidal effect, D (Galinsoga ciliat): 5 (Growth control,rates of more than 90% (almost completely withered))
[7]; application amount 0.4 g/a
  herbicidal effect, M (Digitaria adscendens): 5 (Growth control,rates of more than 90% (almost completely withered))
[7]; application amount 0.8 g/a
  herbicidal effect, M (Digitaria adscendens): 5 (Growth control,rates of more than 90% (almost completely withered))
[7]; application amount 1.6 g/a
  herbicidal effect, M (Digitaria adscendens): 5 (Growth control,rates of more than 90% (almost completely withered))
[8]; application amount 0.4 g/a
  herbicidal effect, R (Oryza sativa): 1 (Growth control rates of 5 to 20%)
[8]; application amount 0.8 g/a
  herbicidal effect, R (Oryza sativa): 4 (Growth control rates of 70 to 90%)
[8]; application amount 1.6 g/a
  herbicidal effect, R (Oryza sativa): 5 (Growth control,rates of more than 90% (almost completely withered))
[9]; application amount 0.4 g/a
  herbicidal effect, I (Rorippa indica): 5 (Growth control,rates of more than 90% (almost completely withered))
[9]; application amount 0.8 g/a
  herbicidal effect, I (Rorippa indica): 5 (Growth control,rates of more than 90% (almost completely withered))
[9]; application amount 1.6 g/a
  herbicidal effect, I (Rorippa indica): 5 (Growth control,rates of more than 90% (almost completely withered))
[10]; application amount 0.4 g/a
  herbicidal effect, S (Glysine max): 0 (Growth control rates of less than 5% (substantially no effect))
[10]; application amount 0.8 g/a
  herbicidal effect, S (Glysine max): 0 (Growth control rates of less than 5% (substantially no effect))
[10]; application amount 1.6 g/a
  herbicidal effect, S (Glysine max): 1 (Growth control rates of 5 to 20%)
[11]; application amount 0.4 g/a
  herbicidal effect, W (Triticum vulgare): 0 (Growth control rates of less than 5% (substantially no effect))
[11]; application amount 0.8 g/a
  herbicidal effect, W (Triticum vulgare): 1 (Growth control rates of 5 to 20%)
[11]; application amount 1.6 g/a
  herbicidal effect, W (Triticum vulgare): 4 (Growth control rates of 70 to 90%)
